Results on 5 molecules are retold here after publication PMC10003159, “Transcytosable Peptide-Paclitaxel Prodrug Nanoparticle for Targeted Treatment of Triple-Negative Breast Cancer” (International Journal of Molecular Sciences, 2023).

The test system of one data set is 4T1-mCherry-Luc tumor. The data set can be described thus: In vivo antitumor efficacy, subcutaneous TNBC model. The arrangement: species or system mice. The settings on record: tail vein every two days, 16 d, n = 7. The procedure:
Healthy female BALB/c mice (18–20 g) were purchased from Shandong University Laboratory Animal Center. Mice were housed in a pathogen-free environment under conditions of 25 ± 2 °C, 50 ± 5% relative humidity, and 12-h light/dark cycles. They were provided with food and water ad libitum. All animal experiment protocols were approved by the Ethics Committee of School of Pharmaceutical Sciences, Shandong University (22017) and implemented according to the regulations of the Shandong Council on Animal Care. To establish the mice TNBC model, 1.0 × 10^6 4T1-mCherry-Luc cells were subcutaneously injected into the left forelimb armpit of mice. […] solution was injected into mice through the abdominal and reacted with 4T1-mCherry-Luc cells to produce bioluminescence. Then, the fluorescence signals were observed and counted by an IVIS Spectrum imaging system (IVIS Kinetic).
Four days after tumor cell implantation, mice were randomly divided into four groups (n = 7). Seven mice in each group, a total of twenty-eight mice were used. Then, saline, TAR peptide (10.6 mg/kg), PTX (4 mg/kg), and PTX-SM-TAR NPs (15.6 mg/kg) were injected through the tail vein every two days. Tumor size and body weight were measured every 4 d. After 16 d of treatment, mice were sacrificed and tumors were removed, weighed, and further analyzed.

In another data set the test system is EA.hy926 cells. The data set can be described thus: Cytotoxicity against normal cells. Type of data set: cell-based. The settings on record: Figure S5, n = 3.
Another data set concerns 4T1-mCherry-Luc cells. In words: Wound healing migration assay. Type of data set: cell-based. Particulars: 24 h, mean ± SEM, n = 3. The procedure: The effect of PTX-SM-TAR NPs and PTX on 4T1-mCherry-Luc cell migration was evaluated with wound-healing assay. 4T1-mCherry-Luc cells were seeded in 6-well plates at a density of 3 × 10^5 cells per well. After overnight culture, the cells were wounded linearly by a 200 µL pipette tip. […] Images of 0 and 24 h were captured by an inverted microscope.

Data set [1] relates to 4T1-mCherry-Luc 3D tumor spheroids. The data set can be described thus: Penetration in 3D tumor spheroids. Type of data set: cell-based. The settings on record: 4 h incubation, LSCM, scanned at 10 μm interval. The procedure:
After adding 150–200 μL of 2% agarose solution to each well, the 48-well plate was placed on the ultra-clean bench under UV irradiation for 30 min before solidification. The 4T1-mCherry-Luc cells were planted into the plate at the density of 4 × 10^4 cells per well and cultured in the incubator for one week. After the cells aggregated into spherical shapes, tumor spheroids were transferred to confocal dishes and incubated with PTX-SM-TAR/C6 NPs and coumarin-6 solution for 2 and 4 h. The tumor spheroids were washed with PBS, fixed with 4% paraformaldehyde for 30 min, and observed with LSCM.

A further data set addresses Neuropilin 1 (NRP-1) (UniProt O14786 22-923, The paper says only 'purified NRP-1 protein', immobilized on a CM5 chip. Species, construct and supplier are not printed. Human ectodomain (signal peptide removed, extracellular 22-856) is taken by co). The data set can be described thus: SPR; Biacore T200; purified NRP-1 immobilised on a CM5 chip; gradient-diluted TAR peptide flowed over; HBS-EP running buffer. The settings on record: both partners purified.

Where a SMILES comes first, the peptide text is derived from it. Where no end group is shown, it is not given here. The star is where a group is joined. X1 = CC(=O)O[C@H]1C(=O)[C@@]2(C)[C@H]([C@H](OC(=O)c3ccccc3)[C@]3(O)C[C@H](OC(=O)[C@H](OC(=O)CCC(=O)NCCN4C(=O)CC(*)C4=O)[C@@H](NC(=O)c4ccccc4)c4ccccc4)C(C)=C1C3(C)C)[C@]1(OC(C)=O)CO[C@@H]1C[C@@H]2O

Sequence of Neuropilin 1 (NRP-1) (O14786 22-923): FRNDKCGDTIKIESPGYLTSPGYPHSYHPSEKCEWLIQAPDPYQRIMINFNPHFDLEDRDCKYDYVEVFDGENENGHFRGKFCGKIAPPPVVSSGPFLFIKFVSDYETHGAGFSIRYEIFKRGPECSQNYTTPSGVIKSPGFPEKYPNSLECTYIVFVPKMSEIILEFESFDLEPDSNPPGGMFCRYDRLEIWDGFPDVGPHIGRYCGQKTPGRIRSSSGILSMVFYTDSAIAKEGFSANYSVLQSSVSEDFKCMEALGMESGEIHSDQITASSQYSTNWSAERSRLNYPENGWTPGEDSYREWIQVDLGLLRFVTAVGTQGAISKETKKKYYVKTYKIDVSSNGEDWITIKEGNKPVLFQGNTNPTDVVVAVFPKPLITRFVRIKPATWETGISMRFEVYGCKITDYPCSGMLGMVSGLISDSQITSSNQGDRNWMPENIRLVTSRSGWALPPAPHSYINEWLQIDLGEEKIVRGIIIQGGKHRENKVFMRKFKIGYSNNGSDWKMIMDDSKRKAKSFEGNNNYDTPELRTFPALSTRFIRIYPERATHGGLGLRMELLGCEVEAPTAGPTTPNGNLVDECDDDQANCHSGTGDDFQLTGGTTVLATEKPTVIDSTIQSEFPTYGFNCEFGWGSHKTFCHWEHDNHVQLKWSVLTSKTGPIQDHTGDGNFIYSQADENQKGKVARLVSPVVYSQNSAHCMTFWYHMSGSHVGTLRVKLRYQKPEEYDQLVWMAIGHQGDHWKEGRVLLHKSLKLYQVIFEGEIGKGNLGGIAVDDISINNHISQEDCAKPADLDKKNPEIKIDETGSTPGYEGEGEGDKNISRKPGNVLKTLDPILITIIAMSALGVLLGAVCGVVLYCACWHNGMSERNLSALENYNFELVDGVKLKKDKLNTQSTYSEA

With `CC(=O)O[C@H]1C(=O)[C@@]2(C)[C@H]([C@H](OC(=O)c3ccccc3)[C@]3(O)C[C@H](OC(=O)[C@H](O)[C@@H](NC(=O)c4ccccc4)c4ccccc4)C(C)=C1C3(C)C)[C@]1(OC(C)=O)CO[C@@H]1C[C@@H]2O` [PTX, paclitaxel], in the data set with 4T1-mCherry-Luc tumor, the “body weight of mice during the experiment” value (“body weight” below) was “remained stable”. The molecule further returned a tumor inhibition rate with 4T1-mCherry-Luc tumor (TAR 10.6 mg/kg, PTX 4 mg/kg, PTX-SM-TAR NPs 15.6 mg/kg, tumor weight) of 28.47%. Further, the “toxicity to normal cells” value in the data set on EA.hy926 cells is given as “slight toxicity to normal cells in the low-concentration”. For the same molecule, the migration rate in the data set with 4T1-mCherry-Luc cells (10 nM) is reported as 32.53 ± 1.43%; with 4T1-mCherry-Luc cells (100 nM), 18.96 ± 2.76%.

For the molecule `CC(=O)O[C@H]1C(=O)[C@@]2(C)[C@H]([C@H](OC(=O)c3ccccc3)[C@]3(O)C[C@H](OC(=O)[C@H](OC(=O)CCC(=O)NCCN4C(=O)CC(SC[C@H](N)C(=O)N[C@@H](CCCNC(=N)N)C(=O)N[C@@H](CCCCN)C(=O)N[C@@H](CCCCN)C(=O)N[C@@H](CCCNC(=N)N)C(=O)N[C@@H](CCCNC(=N)N)C(=O)N[C@@H](CCC(N)=O)C(=O)N[C@@H](CCCNC(=N)N)C(=O)N[C@@H](CCCNC(=N)N)C(=O)N[C@@H](CCCNC(=N)N)C(=O)N[C@@H](C)C(=O)N[C@H](C(=O)N[C@@H](Cc5c[nH]c6ccccc56)C(=O)N[C@@H](CC(C)C)C(=O)N5CCC[C@H]5C(=O)N5CCC[C@H]5C(=O)N[C@@H](CCCNC(=N)N)C(=O)O)[C@@H](C)O)C4=O)[C@@H](NC(=O)c4ccccc4)c4ccccc4)C(C)=C1C3(C)C)[C@]1(OC(C)=O)CO[C@@H]1C[C@@H]2O` (stereo partly shown) [PTX-SM-TAR NPs] (H-C(X1)RKKRRQRRRATWLPPR-OH), the “body weight” value in the data set on 4T1-mCherry-Luc tumor is recorded as “remained stable”. Further, in the data set on EA.hy926 cells, the “toxicity to normal cells” value was “same trend as the PTX”.

In the case of CRKKRRQRRRATWLPPR [TAR], the “body weight” value in the data set on 4T1-mCherry-Luc tumor was “remained stable”.

In the case of `CCN(CC)c1ccc2cc(-c3nc4ccccc4s3)c(=O)oc2c1` [coumarin-6], the “fluorescence distribution in tumor spheroids along Z-axis” value in data set [1] is on record as “gradually disappeared after the Z-axis exceeded 60 μm”.

B1: TAR peptide (peptide)
peptide: CRKKRRQRRRATWLPPR
notes: also called fused peptide TAR; bifunctional fusion peptide of TAT and A7R; source: synthetic peptide (China Peptide Co., Ltd.)
As usually defined, the Kd is the equilibrium constant for the complex coming apart. A low value points to higher affinity. In turn, B1 returned a Kd in the data set with Neuropilin 1 (NRP-1) of 34 nM.
